Earlier results in patent US20260207569A1, “LPA1 ANTAGONISTS FOR TREATING INTERSTITIAL LUNG DISEASE” (Bristol-Myers Squibb Company, priority 2022, published 2026).

How the values were obtained:
[1] = system: patients with IPF; conditions: cited from earlier work
[2] = system: patients with PPF; conditions: 52-week study period; cited from earlier work

Row | Structure (SMILES) | Effect on decline in lung function [1] | Progression of lung fibrosis (annual rate of decline in FVC) vs placebo [2]
1 | COC(=O)c1ccc2c(c1)NC(=O)/C2=C(\Nc1ccc(N(C)C(=O)CN2CCN(C)CC2)cc1)c1ccccc1 [nintedanib] | significantly reduce the decline in lung function | slower progression of lung fibrosis than those who received placebo
2 | Cc1ccc(=O)n(-c2ccccc2)c1 [pirfenidone] | significantly reduce the decline in lung function | 
